Assay results reported in patent US9102648B1, “Bioavailable diacylhydrazine ligands for modulating the expression of exogenous genes via an ecdysone receptor complex” (Intrexon Corporation, priority 2003, dated 2015).

Tests used:
[1] = Bi-directional permeability, CACO-2; type: in vitro ADME; conditions: human, Caco-2, Papp × 10^−6 cm/s (plate certification)
Method: (§1) Caco-2 monolayers were grown to confluence on collagen-coated, microporous, polycarbonate membranes in 12-well Costar Transwell plates. Details of the plates and their certification are shown below. The permeability assay buffer was Hank's Balanced Salt Solution containing 10 mM HEPES and 15 mM glucose at a pH of 7.0±0.2. The dosing solution concentration was 10 μM in assay buffer. At each time point, 1 and 2 hours, a 200-μL aliquot was taken from the receiver chamber and replaced with fresh assay buffer. Cells were dosed on the apical side (A-to-B) or basolateral side (B-to-A) and incubated at 37° C. with 5% CO2 and 90% relative humidity. Each determination was performed in duplicate. The important experimental parameters are outlined below. Permeability through a cell-free (blank) membrane was studied to determine non-specific binding and free diffusion of the compound through the device. Lucifer yellow flux was also measured for each monolayer after being subjected to the test compounds to ensure no damage was inflicted to the cell monolayers during the flux period.
(§2) All samples were assayed by LC/MS using electrospray ionization. Typical LC/MS conditions are as follows:
(§3) dCr/dt is the cumulative concentration in the receiver compartment versus time in M s^−1.
(§4) Vr is the volume of the receiver compartment in cm^3.
(§5) Vd is the volume of the donor compartment in cm^3.
(§6) A is the area of the cell monolayer (1.13 cm^2 for 12-well Transwell).
(§7) C0 is the concentration of the dosing solution in M.
(§8) Cr^final is the cumulative receiver concentration in M at the end of the incubation period.
(§9) Cd^final is the concentration of the donor in M at the end of the incubation period.

Caco-2 monolayers = assay: Bi-directional permeability, CACO-2; type: in vitro ADME
Method: as §1, §2, §3, §4, §5, §6, §7, §8, §9

[2] = Partition coefficient Log (D), 1-octanol / pH 7.4 buffer; type: physicochemical; conditions: for Log(D) Octanol/pH 7.4: water-saturated 1-octanol / pH 7.4 buffer, room temperature
Method: The partition coefficient, Log (D), between water-saturated 1-octanol and pH 7.4 buffer was determined for the test compounds. The buffer was prepared as described in section 2. A 12 μl aliquot of a 10 mM stock solution in DMSO was introduced to a vial containing 0.60 mL of octanol and 0.60 mL of buffer at room temperature. Testosterone was also added to a final concentration of 100 μM as an internal control. The solution was vortexed for 60 minutes and centrifuged at 10,000 rpm for 10 minutes. The organic and aqueous layers were removed. Serial dilutions of the organic layer were made with 50% methanol except for the initial dilution, which was made in 100% methanol. Serial dilutions of the aqueous layer were made in the pH 7.4 buffer. The diluted samples were then assayed by LC/MS for the compound as well as for testosterone. The Log of the ratio of peak area responses was calculated to obtain the Log (D). Typical Log D values for testosterone are from 3.0-3.3.

[3] = target: T1, Bombyx mori EcR (VP16 fusion, CVBE switch construct) (Bombyx mori, UniProt P49881); assay: Z3 Assay (HEK-293 cells with CVBE and 6XEcRE LacZ, β-galactosidase reporter)
T1 sequence (P49881 86-606): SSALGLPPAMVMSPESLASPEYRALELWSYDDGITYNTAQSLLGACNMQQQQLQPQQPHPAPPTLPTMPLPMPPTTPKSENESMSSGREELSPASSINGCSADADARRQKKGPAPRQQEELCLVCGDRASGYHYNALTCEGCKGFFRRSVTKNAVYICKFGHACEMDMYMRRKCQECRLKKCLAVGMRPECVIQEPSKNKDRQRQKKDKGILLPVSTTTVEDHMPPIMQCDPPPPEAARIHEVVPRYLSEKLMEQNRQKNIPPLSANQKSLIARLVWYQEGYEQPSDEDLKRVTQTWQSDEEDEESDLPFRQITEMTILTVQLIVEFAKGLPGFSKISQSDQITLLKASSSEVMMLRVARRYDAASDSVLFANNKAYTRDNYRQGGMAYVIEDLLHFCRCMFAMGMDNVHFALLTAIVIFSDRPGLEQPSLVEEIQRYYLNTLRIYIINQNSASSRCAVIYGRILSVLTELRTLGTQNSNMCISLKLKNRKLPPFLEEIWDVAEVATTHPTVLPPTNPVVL
T1 sequence (P19793 1-462 partner): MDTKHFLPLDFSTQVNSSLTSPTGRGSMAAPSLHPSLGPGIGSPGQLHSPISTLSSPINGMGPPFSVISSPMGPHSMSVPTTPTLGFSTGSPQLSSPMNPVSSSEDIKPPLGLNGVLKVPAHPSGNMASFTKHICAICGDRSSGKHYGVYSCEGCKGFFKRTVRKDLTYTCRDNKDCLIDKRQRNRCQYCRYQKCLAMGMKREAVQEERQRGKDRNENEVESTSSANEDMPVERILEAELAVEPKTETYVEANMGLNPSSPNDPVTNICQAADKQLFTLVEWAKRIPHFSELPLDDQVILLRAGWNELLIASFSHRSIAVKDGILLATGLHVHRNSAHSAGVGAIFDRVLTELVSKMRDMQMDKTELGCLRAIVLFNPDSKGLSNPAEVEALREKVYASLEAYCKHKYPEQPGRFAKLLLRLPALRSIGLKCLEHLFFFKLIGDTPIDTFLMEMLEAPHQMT

[4] = Aqueous equilibrium solubility in pH 7.4 buffer; conditions: pH 7.4 aqueous buffer, room temperature, equilibrium
Method: Equilibrium solubility was measured in pH 7.4 aqueous buffer. The buffer was prepared by adjusting the pH of a 0.07 M solution of NaH2PO4 to pH 7.4 with 10 N NaOH. […] At least 1 mg of powder was combined with 1 mL of buffer to make >1 mg/mL mixture. These samples were shaken for ≧2 hours and left to stand overnight at room temperature. The samples were then filtered through a 0.45-μm Nylon syringe filter that was first saturated with the sample. The filtrate was sampled twice, consecutively. The filtrate was assayed by HPLC against standards prepared in methanol.

[5] = Determination of LC Log P (experimental); type: physicochemical; conditions: diacylhydrazine log P standards (log P known experimentally)
Method: Liquid chromatography retention times (RT) are measured for each substance using the conditions described below. A linear equation is derived relating RT to log P is developed from the data for the log P standards. The log P for the test compound is calculated from the log P/retention time equation.

[6] = target: GAL4 DBD (1-147)-CfEcR(DEF)/VP16AD-βRXREF-LmUSPEF (Choristoneura fumiferana, UniProt O77240); assay: cell-based; conditions: for 27-63 assay Rel Max FI: maximum fold induction at any concentration relative to that of GS-E ligand, CHO 27-63 cells; for fold induction at 33 µM: read-out: Fold Induction, 27-63 Assay, 33 uM
[7] = tested on: mutated ecdysone receptor-based gene switch; assay: In vivo SEAP induction, ligand by IP injection; parameters: species or system C57BL/6 mouse; conditions: IP 26 nmol ligand
Method: Applicants' ligands are useful in various applications including gene therapy, expression of proteins of interest in host cells, production of transgenic organisms, and cell-based assays. In vivo induction of a reporter enzyme with various ligands of the present invention was evaluated in a C57BL/6 mouse model system containing a gene switch.
Each element of the gene switch was on a separate plasmid. Receptor expression was under the control of a CMV promoter (SEQ ID NO: 15). Induction was evaluated by the amount of reporter protein expressed in the presence of ligand.
SEAP expression in serum of mice was evaluated after electroporation of the gene switch into mouse quadriceps. Mice were anesthetized with 2 μL/g of a mixture of ketamine (100 mg/mL) and xylazine (20 mg/mL). Animals were then shaved, DNA vectors injected into the muscle in a volume of 2×50 μL polyglutamic acid (12 mg/mL water), electrode conductivity gel applied, and an electrode caliber (1 cm×1 cm; model 384) was placed on hind leg. The muscle was electroporated with 200 V/cm, 8 times, for 20 msec/pulse, at 1 sec time intervals. The transverse electrical field direction was reversed after the animals received half of the pulses. Electroporation was performed with an ECM 830 electroporator from BTX Molecular Delivery Systems.
In some experiments mice received an intraperitoneal injection (IP) of 2.6 μmol of ligand in 50 μL of DMSO 3 days after electroporation of the gene switch. In other experiments the concentration of ligand was decrease to 26 nmol/50 μL of DMSO/mouse. SEAP expression was evaluated 2-11 days after ligand administration. In other experiments ligand was administered in rodent chow. The chow was prepared by dissolving 2 g of ligand in 20 mL of acetone and adding it to 1 kg of LabDiet 5010 autoclavable chow from Purina Mills. This was thoroughly mixed in a Hobart mixer and then mixed for an additional 15 min in a Cross Blend mixer. Animals received chow ad libitum for 1, 2, or 3 days. All values are the average from four animals. Background SEAP in sera from animals treated with vector alone without ligand addition was 0-11 ng/mL serum.
Mouse serum was obtained by centrifugation of blood acquired by retroorbital bleeding with a small glass capillary tube. SEAP quantification was determined using a Clontech Great Escape chemiluminescence kit and by comparison with the Clontech SEAP standard.
Table 9: In vivo evaluation of ligand-mediated induction of a mutated ecdysone receptor-based gene switch. SEAP expression in serum of mice was evaluated after electroporation of the gene expression cassettes into mouse quadriceps. Mice received an IP injection of 2.6 μmol of ligand 3 days after electroporation. SEAP expression was evaluated 2-11 days after ligand administration. Each dose group was composed of four animals. Percentage of GS™-E ligand induction was determined by averaging SEAP expression from four animals divided by the average SEAP expression induced with GS™-E ligand and then multiplying by 100.
Table 10: Induction of gene switch expression with low concentrations of ligand. SEAP expression in serum of mice was evaluated after electroporation of the gene expression cassettes into mouse quadriceps. Mice received an IP injection of 26 nmol of ligand or 130 nmol GS™-E ligand 3 days after electroporation. SEAP expression was evaluated 2-7 days after ligand administration. Values are the average from 4 animals.

Compound: CC(C)NCC(O)COc1cccc2ccccc12 (stereo not shown) [Propranolol, reference compound]
- Papp [1]: 20 ×10⁻⁶ cm/s
- Papp × 10^−6 cm/s (plate certification) (Caco-2 monolayers; human, Caco-2): 19 10^−6 cm/s

Compound: CC(O)c1ccc(C(=O)NN(C(=O)c2cc(CO)cc(CO)c2)C(C)(C)C)cc1 (stereo not shown) [RG-100021]
- Log(D) Octanol/pH 7.4 [2]: 0.8
- Papp Blank (Caco-2 monolayers; Caco-2): 43.0 10^−6 cm/s
- Papp, A-to-B Avg (Caco-2 monolayers; Caco-2): 0.22 10^−6 cm/s
- Papp, A-to-B Rep. 1 (Caco-2 monolayers; Caco-2): 0.21 10^−6 cm/s
- Papp, A-to-B Rep. 2 (Caco-2 monolayers; Caco-2): 0.22 10^−6 cm/s
- Papp, B-to-A Avg (Caco-2 monolayers; Caco-2): 0.93 10^−6 cm/s
- Papp, B-to-A Rep. 1 (Caco-2 monolayers; Caco-2): 0.91 10^−6 cm/s
- Papp, B-to-A Rep. 2 (Caco-2 monolayers; Caco-2): 0.95 10^−6 cm/s
- Significant Efflux (Caco-2 monolayers; Caco-2): No
- Fold Induction, Z3 Assay, 33 uM ([3]; 33 uM ligand, ligand treated / DMSO treated cells, average of two wells): 1
- Solubility pH 7.4 [4]: ≧1.0 mg/mL

Compound: Cc1cc(C)cc(C(=O)N(NC(=O)c2cccc(O)c2C)C(C)(C)C)c1 [RG-102208, reference compound]
- logP [5]: 2.9

Compound: CCc1c(C(=O)NN(C(=O)c2ccc(F)cc2Cl)C(C)(C)C)ccc2c1OCOC2 [RG-115002, reference compound]
- logP [5]: 3.5

Compound: CCc1c(OC)cccc1C(=O)NN(C(=O)c1ccccc1[S+](C)[O-])C(C)(C)C (stereo not shown) [RG-115199]
- Log(D) Octanol/pH 7.4 [2]: 2.0
- Papp Blank (Caco-2 monolayers; Caco-2): 23.0 10^−6 cm/s
- Papp, A-to-B Avg (Caco-2 monolayers; Caco-2): 30.6 10^−6 cm/s
- Papp, A-to-B Rep. 1 (Caco-2 monolayers; Caco-2): 31.1 10^−6 cm/s
- Papp, A-to-B Rep. 2 (Caco-2 monolayers; Caco-2): 30.2 10^−6 cm/s
- Papp, B-to-A Avg (Caco-2 monolayers; Caco-2): 30.9 10^−6 cm/s
- Papp, B-to-A Rep. 1 (Caco-2 monolayers; Caco-2): 31.0 10^−6 cm/s
- Papp, B-to-A Rep. 2 (Caco-2 monolayers; Caco-2): 30.9 10^−6 cm/s
- Significant Efflux (Caco-2 monolayers; Caco-2): No
- Papp B-A / Papp A-B Ratio (Caco-2 monolayers; Caco-2 efflux ratio): 1.0
- Fold Induction, Z3 Assay, 3.3 uM ([3]; 3.3 uM ligand, ligand treated / DMSO treated cells, average of two wells): 349
- Z3 assay Rel Max FI ([3]; maximum fold induction at any concentration relative to that of GS-E ligand, HEK-293 Z3 cells): 0.734
- EC50 ([3]; read-out: Z3 assay EC50, HEK-293 Z3 cells, β-galactosidase reporter, average of two wells): 3470 nM
- Solubility pH 7.4 [4]: 0.0064 mg/mL

Compound: CCc1ccc(C(=O)NN(C(=O)c2cc(Cl)cc(Cl)c2)C(C)(C)C)c(F)c1 [RG-115372, reference compound]
- logP [5]: 5.02

Compound: CCc1c(C(=O)NN(C(=O)c2cc(C)cc(C)c2)C(CC)C(C)(C)C)ccc2c1OCCO2 (stereo not shown) [RG-115858, 3,5-dimethyl-benzoic acid N′-(5-ethyl-2,3-dihydro-benzo[1,4]dioxine-6-carbonyl)-N-(1-ethyl-2,2-dimethyl-propyl)-hydrazide]
- EC50 [6]: 5 nM
- 27-63 assay Rel Max FI [6]: 0.915
- fold induction at 33 µM [6]: 182
- Secreted Alkaline Phosphatase Day 2 [7]: 13,661 ng/ml mouse sera
- Secreted Alkaline Phosphatase Day 3 [7]: 11,820 ng/ml mouse sera

Compound: CCCC(N(NC(=O)c1ccc2c(c1C)OCCO2)C(=O)c1cc(C)cc(C)c1)C(C)(C)C (stereo not shown) [RG-115864, 3,5-Dimethyl-benzoic acid N-(1-tert-butyl-butyl)-N′-(5-methyl-2,3-dihydro-benzo[1,4]dioxine-6-carbonyl)-hydrazide]
- EC50 [6]: 4 nM
- 27-63 assay Rel Max FI [6]: 0.979
- fold induction at 33 µM [6]: 1260
- Secreted Alkaline Phosphatase Day 2 [7]: 6,722 ng/ml mouse sera
- Secreted Alkaline Phosphatase Day 3 [7]: 5,652 ng/ml mouse sera

Compound: C[C@]12CC[C@H]3[C@@H](CCC4=CC(=O)CC[C@@]43C)[C@@H]1CC[C@@H]2O [testosterone, Testosterone, reference compound]
- logD ([2]; internal control, octanol / pH 7.4 buffer, read-out: Typical Log D values): 3 to 3.3

Compound: Lucifer Yellow [reference compound]
- Papp × 10^−6 cm/s (plate certification) (Caco-2 monolayers; Caco-2 plate TW12, first certification column (seed date Jun. 11, 2002)): 0.14 10^−6 cm/s
- Papp × 10^−6 cm/s (plate certification) (Caco-2 monolayers; Caco-2 plate TW12, second certification column (seed date Jun. 18, 2002)): 0.12 10^−6 cm/s
